Consider 20 molecules from US10968193B2, “Antidiabetic bicyclic compounds” (Merck Sharp & Dohme Corp., priority 2014, dated 2021).

This assay addresses T1, human GPR40 (Homo sapiens, UniProt O14842).
T1 construct: expressed in transfected cells; host or cells: HEK cells stably expressing the aequorin reporter
In words: Inositol Phosphate Turnover (IP1) Assay 2. Format: cell-based. Conditions: HEK cells stably expressing human GPR40; 15,000 cells per well; compound acoustically transferred; CisBio IP-One kit. A digest of the protocol: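 HEK cells stably expressing human GPR40, plated 16 h beforehand, were exposed to compound in stimulation buffer for 60 min at 37 °C. IP1 accumulation was detected by HTRF (665/620 nm ratio) after 60 min with detection reagents and converted to IP1 concentration from a same-day standard curve.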

T1 sequence (O14842 whole entry): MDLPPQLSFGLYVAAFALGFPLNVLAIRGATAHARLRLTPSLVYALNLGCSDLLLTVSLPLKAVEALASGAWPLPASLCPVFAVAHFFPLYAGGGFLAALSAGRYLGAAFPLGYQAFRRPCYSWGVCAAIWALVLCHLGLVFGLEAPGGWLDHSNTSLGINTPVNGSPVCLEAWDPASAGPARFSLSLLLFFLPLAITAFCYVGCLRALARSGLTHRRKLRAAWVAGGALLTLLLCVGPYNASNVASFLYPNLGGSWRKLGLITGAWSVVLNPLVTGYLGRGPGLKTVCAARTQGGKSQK

For the molecule `COc1cc(-c2ccc([C@@H]3CCc4ccc([C@H](C5CC5)[C@H](C)C(=O)O)cc4O3)cc2CNCC(F)(F)F)c(F)cn1` [Example 150], the concentration giving a half-maximal response (EC50) is 1 nM.

Molecule `COc1cc(-c2ccc([C@@H]3CCc4ccc([C@H](C5CC5)[C@H](C)C(=O)O)cc4O3)cc2CN2CCCCC2)c(F)cn1` [Example 151] returned a concentration for a half-maximal effect (EC50) of 2 nM.

Molecule `COc1cc(-c2ccc([C@@H]3CCc4ccc([C@H](C5CC5)[C@H](C)C(=O)O)cc4O3)cc2CN2CCCCC2(C)C)c(F)cn1` [Example 152] showed an EC50 of 0.5 nM.

The molecule `COc1cc(-c2ccc([C@@H]3CCc4ccc([C@H](C5CC5)[C@H](C)C(=O)O)cc4O3)cc2CN2CCCC[C@H]2C)c(F)cn1` [Example 153] yielded an EC50 of 1.1 nM.

As for `COc1cc(-c2ccc([C@@H]3CCc4ccc([C@H](C5CC5)[C@H](C)C(=O)O)cc4O3)cc2CN2CCCC[C@@H]2C)c(F)cn1` [Example 154], it took 1.3 nM to reach a half-maximal effect (EC50).

As to `COc1cc(-c2ccc([C@@H]3CCc4ccc([C@H](C5CC5)[C@H](C)C(=O)O)cc4O3)cc2CN2CCC(C)(C)CC2)c(F)cn1` [Example 155], the half-maximal effective concentration (EC50) is 1.8 nM.

Take `COc1cc(-c2ccc([C@H]3CCc4ccc([C@H](C5CC5)[C@H](C)C(=O)O)cc4O3)cc2CN2CCC2(C)C)c(F)cn1` [Example 156]: the midpoint of the response, the EC50, lay at 8.3 nM.

`COc1cc(-c2ccc([C@@H]3CCc4ccc([C@H](C5CC5)[C@H](C)C(=O)O)cc4O3)cc2CN2CCC2(C)C)c(F)cn1` [Example 157] returned an EC50 of 4.2 nM.

Molecule `CCN(CC)Cc1cc([C@@H]2CCc3ccc([C@H](C4CC4)[C@H](C)C(=O)O)cc3O2)ccc1-c1cc(OC)ncc1F` [Example 159] came in with a concentration giving a half-maximal response (EC50) of 3.3 nM.

`COc1cc(-c2ccc([C@@H]3CCc4ccc([C@H](C5CC5)[C@H](C)C(=O)O)cc4O3)cc2CN2CCCC2(C)C)c(F)cn1` [Example 160] had an EC50 of 2.5 nM.

`COc1cc(-c2ccc([C@@H]3CCc4ccc([C@H](C5CC5)[C@H](C)C(=O)O)cc4O3)cc2CN2[C@H](C)CC[C@H]2C)c(F)cn1` [Example 161] had a concentration for a half-maximal effect (EC50) of 0.6 nM.

The molecule `COc1cc(-c2ccc([C@@H]3CCc4ccc([C@H](C5CC5)[C@H](C)C(=O)O)cc4O3)cc2CN2C3CCC2CC3)c(F)cn1` [Example 162] registered a 50% effective concentration (EC50) of 5.4 nM.

Consider `COC[C@H]1CCCN1Cc1cc([C@H]2CCc3ccc([C@H](C4CC4)[C@H](C)C(=O)O)cc3O2)ccc1-c1cc(OC)ncc1F` [Example 163], for which the concentration giving a half-maximal response (EC50) came to 3.3 nM.

With `COC[C@H]1CCCN1Cc1cc([C@@H]2CCc3ccc([C@H](C4CC4)[C@H](C)C(=O)O)cc3O2)ccc1-c1cc(OC)ncc1F` [Example 164], the concentration giving a half-maximal response (EC50) turned out to be 1.6 nM.

Take `COc1cc(-c2ccc([C@H]3CCc4ccc([C@H](C5CC5)[C@H](C)C(=O)O)cc4O3)cc2CN2CCCCC2)c(F)cn1` [Example 165]: the EC50 is 3.9 nM.

In turn, `COc1cc(-c2ccc([C@H]3CCc4ccc([C@H](C5CC5)[C@H](C)C(=O)O)cc4O3)cc2CN2CCCCC2(C)C)c(F)cn1` [Example 166] had an EC50 of 0.3 nM.

Turning to `COc1cc(-c2ccc([C@H]3CCc4ccc([C@H](C5CC5)[C@H](C)C(=O)O)cc4O3)cc2CN2CCCC[C@H]2C)c(F)cn1` [Example 167], the response was half-maximal at 2.2 nM (EC50).

`COc1cc(-c2ccc([C@H]3CCc4ccc([C@H](C5CC5)[C@H](C)C(=O)O)cc4O3)cc2CN2CCCC[C@@H]2C)c(F)cn1` [Example 168]: the half-maximal effective concentration (EC50) is 2.9 nM.

Regarding `COc1cc(-c2ccc([C@H]3CCc4ccc([C@H](C5CC5)[C@H](C)C(=O)O)cc4O3)cc2CN2CCC(C)(C)CC2)c(F)cn1` [Example 169], the response was half-maximal at 1.7 nM (EC50).

In the case of `COc1cc(-c2cc(F)c(C3CCc4ccc([C@H](C5CC5)[C@H](C)C(=O)O)cc4O3)cc2CN2CCCC2)ccn1` (stereo partly drawn) [Example 180, 1RS, (2S, 3R)-3-cyclopropyl-3-(2-(2-fluoro-4-(2-methoxypyridin-4-yl)-5-(pyrrolidin-1-ylmethyl)phenyl)chroman-7-yl)-2-methylpropanoic acid], the EC50 was determined as 41 nM.

A word on the EC50: it is the concentration giving half of the maximal effect.
